According to patent publication US20120197004A1, “NOVEL ANTI-MICROBIAL PEPTIDOMIMETIC COMPOUNDS AND METHODS TO CALCULATE ANTI-MICROBIAL ACTIVITY” (priority 2006, published 2012):
Values after ≈ are worked out from the molar mass of the structure shown. Read-outs that look alike come from different tables or passages of the source. Where a SMILES comes first, the peptide text is derived from it. [ ]: non-standard residue; d: D form. ξ: configuration not given here. Oic = O=C(O)[C@@H]1C[C@@H]2CCCC[C@@H]2N1; Tic = O=C(O)[C@@H]1Cc2ccccc2CN1; ξTic = O=C(O)C1Cc2ccccc2CN1; ξOic = O=C(O)C1CC2CCCCC2N1

Legend:
[1] = tested on: Plasmodium falciparum W2 (CDC Indochina III chloroquine, quinine, pyrimethamine and sulfadoxine-resistant)
[2] = tested on: Salmonella typhimurium (ATCC 13311); conditions: for p(MIC) Salmonella typhimurium: -log(MIC); for MIC Salmonella typhimurium: ATCC 13311
[3] = tested on: Staphylococcus aureus Methicillin/Gentamicin/Tetracycline Resistant (ATCC 33592); conditions: for p(MIC) Staphylococcus aureus ME/GM/TC resistant: -log(MIC); for MIC Staphylococcus aureus ME/GM/TC resistant: Minimal Inhibitory Concentration, tested at 100-0.1 in 1% DMSO; for Minimum Inhibitory Concentration Staphylococcus aureus ME/GM/TC resistant: in vitro MIC, tested at 100, 30, 10, 3, 1, 0.3 and 0.1 μM in 1% DMSO; for Actual Bioactivity: p(MIC) used in Staphylococcus aureus QSAR model
[4] = tested on: red blood cells
[5] = tested on: Plasmodium falciparum D6 (CDC Sierra Leone, mefloquine resistant)
[6] = tested on: red blood cells; experiment: Hemolytic studies; conditions: concentration not given
[7] = tested on: Bacillus subtillis (ATCC 43223); conditions: for p(MIC) Bacillus Subtillis: -log(MIC); for MIC Bacillus Subtillis: ATCC 43223
[8] = tested on: Mycobacterium ranae (ATCC 110)
[9] = in vitro; conditions: dog, microsomes, pH 7.4
[10] = in vitro; conditions: monkey, microsomes, pH 7.4
[11] = in vitro; conditions: human, microsomes, pH 7.4
[12] = in vitro; conditions: rat, microsomes, pH 7.4
[13] = in vitro; conditions: mouse, microsomes, pH 7.4
[14] = Maximum tolerated dose in mouse model; type: in vivo; conditions: IP, 1 mg/kg, dosed daily day 1-6
Description: Maximum Tolerated Dose: Six compounds were evaluated in an in vivo mouse model to determine the maximum tolerated dose for each compound by BIOCON, Inc. using the following protocol. For each compound 3 dose concentrations (1/5/25 mg/kg or 5/25/125 mg/kg) were administered IP, 1-2 times per day as split doses. Day 0 weigh the animals, day 1-6 dose daily and observe animals, day 7 weigh, euthanasia followed by necrotize to examine abdominal cavity.

CC(C)C[C@H](NC(=O)CNC(=O)[C@@H]1C[C@@H]2CCCC[C@@H]2N1C(=O)[C@@H]1Cc2ccccc2CN1C(=O)[C@H](CC(C)C)NC(=O)CNC(=O)[C@@H]1C[C@@H]2CCCC[C@@H]2N1C(=O)[C@@H]1Cc2ccccc2CN1C(=O)[C@H](CCCCN)NC(=O)CNC(=O)[C@@H]1C[C@@H]2CCCC[C@@H]2N1C(=O)[C@@H]1Cc2ccccc2CN1C(=O)[C@H](CC(C)C)NC(=O)CNC(=O)[C@@H]1C[C@@H]2CCCC[C@@H]2N1C(=O)[C@@H]1Cc2ccccc2CN1C(=O)[C@H](CCCCN)NC(=O)CNC(=O)[C@@H]1C[C@@H]2CCCC[C@@H]2N1C(=O)[C@@H]1Cc2ccccc2CN1C(=O)[C@H](CC(C)C)NC(=O)CNC(=O)[C@@H]1C[C@@H]2CCCC[C@@H]2N1C(=O)[C@@H]1Cc2ccccc2CN1C(=O)[C@H](CC(C)C)NC(=O)CNC(=O)[C@H](CCCCN)NC(=O)CN)C(=O)N[C@@H](CCCNC(=N)N)C(N)=O [WRFK-3, NH2-GKGL-Tic-Oic-GL-Tic-Oic-GK-Tic-Oic-GL-Tic-Oic-GK-Tic-Oic-GL-Tic-Oic-GLR-CONH2] (H-GKGL[Tic][Oic]GL[Tic][Oic]GK[Tic][Oic]GL[Tic][Oic]GK[Tic][Oic]GL[Tic][Oic]GLR-NH2)
IC50 * W2 [1]: 7.2 µg/mL (≈ 2.09 µM) | Minimum Inhibitory Concentration Salmonella typhimurium ([2]; in vitro MIC, tested at 100, 30, 10, 3, 1, 0.3 and 0.1 μM in 1% DMSO): not active | p(MIC) Staphylococcus aureus ME/GM/TC resistant [3]: 4.00 | MIC Staphylococcus aureus ME/GM/TC resistant [3]: 0.1 mM (≈ 0.344 mg/mL) | Minimum Inhibitory Concentration Staphylococcus aureus ME/GM/TC resistant [3]: 100 µM | Actual Bioactivity [3]: 4.000 | % hemolysis 100/25 μM (first value) ([4]; 100 μM): 100% | IC50 * D6 [5]: 5.2 µg/mL (≈ 1.51 µM)

CC(C)C[C@H](NC(=O)CNC(=O)[C@H](CCCCN)NC(=O)CN)C(=O)N1Cc2ccccc2C[C@H]1C(=O)N1[C@H](C(=O)NCC(=O)N[C@@H](CCCCN)C(=O)N2Cc3ccccc3C[C@H]2C(=O)N2[C@H](C(=O)NCC(=O)N[C@@H](CC(C)C)C(=O)N3Cc4ccccc4C[C@H]3C(=O)N3[C@H](C(=O)NCC(=O)N[C@@H](CCCCN)C(=O)N4Cc5ccccc5C[C@H]4C(=O)N4[C@H](C(=O)NCC(=O)N[C@@H](CC(C)C)C(=O)N5Cc6ccccc6C[C@H]5C(=O)N5[C@H](C(=O)NCC(=O)N[C@@H](CCCCN)C(=O)N6Cc7ccccc7C[C@H]6C(=O)N6[C@H](C(=O)NCC(=O)N[C@@H](CCCCN)C(=O)N[C@@H](CCCNC(=N)N)C(N)=O)C[C@@H]7CCCC[C@@H]76)C[C@@H]6CCCC[C@@H]65)C[C@@H]5CCCC[C@@H]54)C[C@@H]4CCCC[C@@H]43)C[C@@H]3CCCC[C@@H]32)C[C@@H]2CCCC[C@@H]21 [WRFK-4, NH2-GKGL-Tic-Oic-GK-Tic-Oic-GL-Tic-Oic-GK-Tic-Oic-GL-Tic-Oic-GK-Tic-Oic-GKR-CONH2] (H-GKGL[Tic][Oic]GK[Tic][Oic]GL[Tic][Oic]GK[Tic][Oic]GL[Tic][Oic]GK[Tic][Oic]GKR-NH2)
% hemolysis / Hemolytic activity [6]: 100% | IC50 * W2 [1]: 6.5 µg/mL (≈ 1.87 µM) | p(MIC) Salmonella typhimurium [2]: 4.00 | MIC Salmonella typhimurium [2]: 0.1 mM (≈ 0.347 mg/mL) | p(MIC) Staphylococcus aureus ME/GM/TC resistant [3]: 5.00 | Actual Bioactivity [3]: 5.000 | IC50 * D6 [5]: 7.8 µg/mL (≈ 2.25 µM)

CC(C)C[C@H](NC(=O)CNC(=O)[C@H](CCCCN)NC(=O)CN)C(=O)N1Cc2ccccc2C[C@H]1C(=O)N1[C@H](C(=O)NCC(=O)N[C@@H](CCCNC(=N)N)C(=O)N2Cc3ccccc3C[C@H]2C(=O)N2[C@H](C(=O)NCC(=O)N[C@@H](Cc3ccccc3)C(=O)N3Cc4ccccc4C[C@H]3C(=O)N3[C@H](C(=O)NCC(=O)N[C@@H](CCCNC(=N)N)C(=O)N4Cc5ccccc5C[C@H]4C(=O)N4[C@H](C(=O)NCC(=O)N[C@@H](Cc5ccccc5)C(=O)N5Cc6ccccc6C[C@H]5C(=O)N5[C@H](C(=O)NCC(=O)N[C@@H](CCCNC(=N)N)C(=O)N6Cc7ccccc7C[C@H]6C(=O)N6[C@H](C(=O)NCC(=O)N[C@@H](CCCCN)C(=O)N[C@@H](CCCNC(=N)N)C(N)=O)C[C@@H]7CCCC[C@@H]76)C[C@@H]6CCCC[C@@H]65)C[C@@H]5CCCC[C@@H]54)C[C@@H]4CCCC[C@@H]43)C[C@@H]3CCCC[C@@H]32)C[C@@H]2CCCC[C@@H]21 [WRFK-2, NH2-GKGL-Tic-Oic-GR-Tic-Oic-GF-Tic-Oic-GR-Tic-Oic-GF-Tic-Oic-GR-Tic-Oic-GKR-CONH2] (H-GKGL[Tic][Oic]GR[Tic][Oic]GF[Tic][Oic]GR[Tic][Oic]GF[Tic][Oic]GR[Tic][Oic]GKR-NH2)
% hemolysis / Hemolytic activity [6]: 100% | IC50 * W2 [1]: 6.9 µg/mL (≈ 1.9 µM) | p(MIC) Salmonella typhimurium [2]: 4.00 | MIC Salmonella typhimurium [2]: 0.1 mM (≈ 0.362 mg/mL) | p(MIC) Bacillus Subtillis [7]: 6.00 | MIC Bacillus Subtillis [7]: 0.001 mM (≈ 0.00362 mg/mL) | p(MIC) Staphylococcus aureus ME/GM/TC resistant [3]: 5.00 | MIC Staphylococcus aureus ME/GM/TC resistant [3]: 0.01 mM (≈ 0.0362 mg/mL) | Minimum Inhibitory Concentration Staphylococcus aureus ME/GM/TC resistant [3]: 10 µM | Actual Bioactivity [3]: 5.000 | Actual Bioactivity [8]: 0.000 | MIC Mycobacterium ranae [8]: 1000 mM (≈ 3620 mg/mL) | Minimum Inhibitory Concentration Mycobacterium ranae [8]: not active | IC50 * D6 [5]: 7.2 µg/mL (≈ 1.99 µM)

CC(C)C[C@H](NC(=O)[C@@H](N)CCCCN)C(=O)N1Cc2ccccc2CC1C(=O)N1C(C(=O)NCC(=O)N[C@@H](CCCCN)C(=O)N2Cc3ccccc3CC2C(=O)N2C(C(=O)NCC(=O)N[C@@H](Cc3ccccc3)C(=O)N3Cc4ccccc4CC3C(=O)N3C(C(=O)NCC(=O)N[C@@H](CCCCN)C(=O)N4Cc5ccccc5CC4C(=O)N[C@@H](CCCCN)C(=O)N[C@@H](CCCCN)C(=O)N[C@@H](CCCCN)C(=O)N[C@@H](CCCCN)C(N)=O)CC4CCCCC43)CC3CCCCC32)CC2CCCCC21 (stereo partly drawn) [FKAB-1Gb, NH2--KL-Tic-Oic-GK-Tic-Oic-GF-Tic-Oic-GK-Tic-KKKK-CONH2] (H-KL[ξTic][ξOic]GK[ξTic][ξOic]GF[ξTic][ξOic]GK[ξTic]KKKK-NH2)
remaining at 0.5 h, 1 μM [9]: 99% | remaining at 1 h, 1 μM [9]: 81% | remaining at 0.25 h, 1 μM [10]: 86% | remaining at 0.5 h, 1 μM [10]: 87% | remaining at 1 h, 1 μM [10]: 97% | MIC Salmonella typhimurium [2]: 0.003 mM (≈ 0.00731 mg/mL) | remaining at 0.25 h, 1 μM [11]: 98% | MIC Bacillus Subtillis [7]: 0.001 mM (≈ 0.00244 mg/mL) | MIC Staphylococcus aureus ME/GM/TC resistant [3]: 0.03 mM (≈ 0.0731 mg/mL) | Minimum Inhibitory Concentration Staphylococcus aureus ME/GM/TC resistant [3]: 30 µM | remaining at 0.25 h, 1 μM [12]: 84% | remaining at 0.5 h, 1 μM [12]: 84% | remaining at 1 h, 1 μM [12]: 91% | MIC Mycobacterium ranae ([8]; ATCC 110): 0.003 mM (≈ 0.00731 mg/mL) | Minimum Inhibitory Concentration Mycobacterium ranae ([8]; ATCC 110): 3 µM | % hemolysis 100/25 μM (first value) [4]: 43.6%/ | % hemolysis 100/25 μM (second value) [4]; 25: 24.9% | remaining at 0.25 h, 1 μM [13]: 87% | remaining at 0.5 h, 1 μM [13]: 73% | remaining at 1 h, 1 μM [13]: 70% | Maximum Tolerated Dose/Toxicity 1 mg/kg [14]: no observed toxicity

CC(C)C[C@H](NC(=O)CNC(=O)[C@H](CCCCN)NC(=O)CN)C(=O)N1Cc2ccccc2C[C@H]1C(=O)N1[C@H](C(=O)N[C@@H](Cc2ccccc2)C(=O)N[C@@H](CCCCN)C(=O)N2Cc3ccccc3C[C@H]2C(=O)N2[C@H](C(=O)N[C@@H](CCCCN)C(=O)N[C@@H](Cc3ccccc3)C(=O)N3Cc4ccccc4C[C@H]3C(=O)N3[C@H](C(=O)N[C@@H](Cc4ccccc4)C(=O)N[C@@H](CCCCN)C(=O)N4Cc5ccccc5C[C@H]4C(=O)N4[C@H](C(=O)N[C@@H](CCCCN)C(=O)N[C@@H](Cc5ccccc5)C(=O)N5Cc6ccccc6C[C@H]5C(=O)N5[C@H](C(=O)N[C@@H](Cc6ccccc6)C(=O)N[C@@H](CCCCN)C(=O)N6Cc7ccccc7C[C@H]6C(=O)N6[C@H](C(=O)N[C@@H](Cc7ccccc7)C(=O)N[C@@H](CCCCN)C(=O)N[C@@H](CCCNC(=N)N)C(N)=O)C[C@@H]7CCCC[C@@H]76)C[C@@H]6CCCC[C@@H]65)C[C@@H]5CCCC[C@@H]54)C[C@@H]4CCCC[C@@H]43)C[C@@H]3CCCC[C@@H]32)C[C@@H]2CCCC[C@@H]21 [WRFK-5, NH2-GKGL-Tic-Oic-FK-Tic-Oic-KF-Tic-Oic-FK-Tic-Oic-KF-Tic-Oic-FK-Tic-Oic-FKR-CONH2] (H-GKGL[Tic][Oic]FK[Tic][Oic]KF[Tic][Oic]FK[Tic][Oic]KF[Tic][Oic]FK[Tic][Oic]FKR-NH2)
IC50 * W2 [1]: 4.2 µg/mL (≈ 1.04 µM) | p(MIC) Salmonella typhimurium [2]: 4.00 | MIC Salmonella typhimurium [2]: 0.1 mM (≈ 0.404 mg/mL) | p(MIC) Bacillus Subtillis [7]: 5.52 | MIC Bacillus Subtillis [7]: 0.003 mM (≈ 0.0121 mg/mL) | p(MIC) Staphylococcus aureus ME/GM/TC resistant [3]: 4.52 | MIC Staphylococcus aureus ME/GM/TC resistant [3]: 0.03 mM (≈ 0.121 mg/mL) | Minimum Inhibitory Concentration Staphylococcus aureus ME/GM/TC resistant [3]: 30 µM | Actual Bioactivity [3]: 4.520 | Actual Bioactivity [8]: 0.000 | MIC Mycobacterium ranae [8]: 1000 mM (≈ 4040 mg/mL) | Minimum Inhibitory Concentration Mycobacterium ranae [8]: not active | % hemolysis 100/25 μM (first value) ([4]; 100 μM): 100% | IC50 * D6 [5]: 3.9 µg/mL (≈ 0.965 µM)
